From patent US10994015B2, “EGFR proteolysis targeting chimeric molecules and associated methods of use” (Arvinas Operations, Inc., priority 2016, dated 2021)

Key:
[1] = target: EGFR L858R/T790M/C797S triple mutant (H520*) (Homo sapiens (Human), UniProt P00533, C797S/L858R/T790M); assay: EGFR protein degradation assay (Western blot); format: cell-based; details: 72 hours, 300 nM to 10 nM
Procedure: (§1) EGFR Protein Degradation assay
Cells were incubated overnight at 37° C., 5% CO2 prior to compound addition. A 10 mM compound stock in DMSO was serially diluted in DMSO to provide the following stock concentrations: 1, 0.3, 0.1, 0.03 and 0.01 mM. An appropriate volume of each compound dilution, together with a DMSO vehicle control, was added to media to provide a 2× compound solution. […] At the end of the compound treatment, cells were washed once with ice-cold phosphate-buffered saline (PBS) and treated with lysis solution (1× lysis buffer, Cell Signaling Technologies (CST #9803) supplemented with Piarce™ protease inhibitors, #A32953, Thermo Fisher Scientific, TFS). Lysates were collected and clarified of cell debris by spinning at 10K rpm for 10 minutes. A specific volume of supernatant was retrieved for protein quantification (Pierce™ BCA kit, TFS #23225) and for Western analysis. Loading buffer supplemented with EDTA and reducing agent was added to each supernatant. A specific volume of supernatant (determined by protein assay: […] loaded per sample) was loaded into a NuPAGE™ 4-12% Bis-Tris gel (TFS). Samples were run at 165V in MOPS running buffer for 2 hours and then transferred to PVDF blotting membrane using a dry blotting system (iBlot2, TFS). Membranes were blocked in Tris-buffered saline supplemented with Tween, 0.1% (TBST) containing 5% non-fat dry milk, (AmericanBio). Following block, membranes were washed once with TBST. […] Membranes were washed 3× with TBST prior to addition of secondary antibody (1:10 000, anti-rabbit HRP-linked, CST #7074) in TBST with 3% BSA and then incubated at room temperature for one hour. Membranes were then washed 3× with TBS and signal developed by exposure to developer (SuperSignal West Femto, TFS) for 5 minutes. Membranes were then immediately imaged using a BioRad Chemidoc.

EGFR WT = EGFR WT (Homo sapiens (Human), UniProt P00533); assay: TR-FRET assay for ERBB kinases; format: biochemical; details: geometric mean if measured more than once
Sequence of EGFR WT (P00533 25-1210): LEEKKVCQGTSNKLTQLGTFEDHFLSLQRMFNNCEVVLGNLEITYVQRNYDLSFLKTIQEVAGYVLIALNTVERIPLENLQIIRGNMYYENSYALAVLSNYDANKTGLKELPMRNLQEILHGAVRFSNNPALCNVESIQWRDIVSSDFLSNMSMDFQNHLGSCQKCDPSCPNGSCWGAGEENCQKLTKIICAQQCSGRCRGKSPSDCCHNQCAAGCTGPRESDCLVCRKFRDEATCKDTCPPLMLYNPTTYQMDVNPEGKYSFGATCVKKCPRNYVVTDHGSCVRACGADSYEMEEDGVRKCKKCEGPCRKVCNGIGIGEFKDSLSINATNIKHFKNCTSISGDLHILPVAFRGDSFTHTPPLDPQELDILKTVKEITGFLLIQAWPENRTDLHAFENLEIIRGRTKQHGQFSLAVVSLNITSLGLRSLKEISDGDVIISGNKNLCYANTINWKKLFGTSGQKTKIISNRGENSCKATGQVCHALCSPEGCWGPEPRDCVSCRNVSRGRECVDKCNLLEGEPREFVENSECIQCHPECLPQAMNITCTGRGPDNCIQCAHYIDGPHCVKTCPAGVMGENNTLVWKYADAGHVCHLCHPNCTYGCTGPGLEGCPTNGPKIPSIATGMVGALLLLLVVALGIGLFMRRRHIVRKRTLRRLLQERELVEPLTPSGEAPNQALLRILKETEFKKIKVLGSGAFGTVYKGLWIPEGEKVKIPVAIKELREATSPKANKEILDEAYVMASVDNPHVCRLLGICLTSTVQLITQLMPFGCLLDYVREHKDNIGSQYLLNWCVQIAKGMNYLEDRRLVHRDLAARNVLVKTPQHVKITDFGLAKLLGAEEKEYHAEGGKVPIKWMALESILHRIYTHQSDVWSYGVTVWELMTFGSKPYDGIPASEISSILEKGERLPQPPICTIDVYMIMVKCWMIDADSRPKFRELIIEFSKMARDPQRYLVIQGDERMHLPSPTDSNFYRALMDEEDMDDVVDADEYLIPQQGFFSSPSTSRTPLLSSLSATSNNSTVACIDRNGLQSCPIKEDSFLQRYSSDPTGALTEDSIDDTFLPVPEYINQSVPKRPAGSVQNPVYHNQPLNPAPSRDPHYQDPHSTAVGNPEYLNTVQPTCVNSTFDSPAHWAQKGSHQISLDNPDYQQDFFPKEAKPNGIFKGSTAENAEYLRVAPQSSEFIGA
Procedure: (§2) TR-FRET Assay for ERBB Kinases
(§3) All compounds and PROTACs were serially diluted in three-fold increments using 100% DMSO, followed by an intermediate 10-fold dilution using Buffer A (50 mM HEPES, pH 7.5, 50 mM NaCl, 10 mM MgCl2, 1 mM DTT, and 0.1% Pluronic F-68). […] Next, 10 uL of protein kinase in Buffer A was added to each well of the assay plate and pre-incubated with compound for 10 minutes. Kinase reactions were then initiated by addition of 5 uL substrate mix containing 3 mM ATP and 30 uM fluorescein-labeled Poly-GluTyr (Thermo Fisher, #PV3610) in Buffer A and allowed to proceed for 10 minutes at room temperature. Reactions were quenched by addition of a 5 uL mixture containing 5 nM LanthaScreen® Tb-pY20 Antibody (Thermo Fisher, #PV3552) and 40 mM EDTA in Buffer A. Assay plates were then read using a Synergy2 (Biotek Instruments, Winooski, Vt.) via excitation thru a 340/20 nm bandpass filter and emission collected thru 490/10 nm (donor) and 520/25 nm (acceptor) bandpass filters.

EGFR L858R/T790M/C797S = EGFR L858R/T790M/C797S (Homo sapiens (Human), UniProt P00533, C797S/L858R/T790M); assay: TR-FRET assay for ERBB kinases; format: biochemical; details: geometric mean if measured more than once
Sequence of EGFR L858R/T790M/C797S (P00533 25-1210 T790M/C797S/L858R): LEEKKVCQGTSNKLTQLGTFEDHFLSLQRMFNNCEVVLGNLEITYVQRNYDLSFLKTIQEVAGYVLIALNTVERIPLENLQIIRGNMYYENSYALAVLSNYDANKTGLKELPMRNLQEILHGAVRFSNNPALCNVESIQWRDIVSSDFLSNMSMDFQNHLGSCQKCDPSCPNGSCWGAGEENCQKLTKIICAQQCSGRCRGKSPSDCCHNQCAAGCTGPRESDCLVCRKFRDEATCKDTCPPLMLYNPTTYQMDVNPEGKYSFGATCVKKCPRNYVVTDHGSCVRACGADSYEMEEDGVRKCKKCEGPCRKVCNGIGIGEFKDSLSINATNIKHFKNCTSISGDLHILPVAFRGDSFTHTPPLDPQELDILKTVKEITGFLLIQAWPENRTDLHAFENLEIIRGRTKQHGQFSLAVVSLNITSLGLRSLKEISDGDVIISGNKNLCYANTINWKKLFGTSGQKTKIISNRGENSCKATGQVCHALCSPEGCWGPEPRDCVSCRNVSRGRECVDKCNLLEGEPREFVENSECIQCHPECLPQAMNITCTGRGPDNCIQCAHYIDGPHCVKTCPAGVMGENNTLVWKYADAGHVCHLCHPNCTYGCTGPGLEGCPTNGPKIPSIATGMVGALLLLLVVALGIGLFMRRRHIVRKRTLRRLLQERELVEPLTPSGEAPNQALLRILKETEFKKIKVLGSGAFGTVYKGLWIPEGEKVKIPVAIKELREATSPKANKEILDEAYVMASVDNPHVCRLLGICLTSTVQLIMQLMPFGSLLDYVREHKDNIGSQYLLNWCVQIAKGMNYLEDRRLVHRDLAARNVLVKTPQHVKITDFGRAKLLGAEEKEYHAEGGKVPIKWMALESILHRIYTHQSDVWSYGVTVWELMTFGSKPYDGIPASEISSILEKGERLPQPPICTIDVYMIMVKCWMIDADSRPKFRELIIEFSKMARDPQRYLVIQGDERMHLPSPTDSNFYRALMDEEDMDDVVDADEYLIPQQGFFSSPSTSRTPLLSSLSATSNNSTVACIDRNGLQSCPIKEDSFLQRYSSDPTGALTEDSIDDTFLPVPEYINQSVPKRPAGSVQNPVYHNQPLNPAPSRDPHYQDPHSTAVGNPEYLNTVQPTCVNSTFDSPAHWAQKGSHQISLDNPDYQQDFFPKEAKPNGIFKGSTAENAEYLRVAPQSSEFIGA
Procedure: as §2, §3

EGFR L858R/T790M = EGFR L858R/T790M (Homo sapiens (Human), UniProt P00533, L858R/T790M); assay: TR-FRET assay for ERBB kinases; format: biochemical; details: geometric mean if measured more than once
Procedure: as §2, §3

EGFR Exon20NPG = EGFR Exon20NPG (Homo sapiens (Human), UniProt P00533, INS770NPG); assay: TR-FRET assay for ERBB kinases; format: biochemical; details: geometric mean if measured more than once
Sequence of EGFR Exon20NPG (P00533 other isoform, or with tags, fused parts or gaps del 1-694/ins NPG behind 770 limits assumed): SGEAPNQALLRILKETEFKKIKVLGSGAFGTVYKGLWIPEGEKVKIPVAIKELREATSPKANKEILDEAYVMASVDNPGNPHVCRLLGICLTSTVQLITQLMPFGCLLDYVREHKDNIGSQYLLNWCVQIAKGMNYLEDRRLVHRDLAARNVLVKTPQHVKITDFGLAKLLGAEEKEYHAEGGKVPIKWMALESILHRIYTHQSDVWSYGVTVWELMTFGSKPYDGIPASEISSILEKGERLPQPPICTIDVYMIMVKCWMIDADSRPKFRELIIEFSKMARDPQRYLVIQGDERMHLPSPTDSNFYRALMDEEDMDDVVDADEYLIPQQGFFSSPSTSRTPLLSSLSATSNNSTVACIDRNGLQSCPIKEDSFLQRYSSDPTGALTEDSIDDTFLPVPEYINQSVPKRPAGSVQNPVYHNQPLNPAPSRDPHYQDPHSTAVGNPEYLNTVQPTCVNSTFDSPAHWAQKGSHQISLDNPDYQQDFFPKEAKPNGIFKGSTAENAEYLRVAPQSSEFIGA
Procedure: as §2
All compounds and PROTACs were serially diluted in three-fold increments using 100% DMSO, followed by an intermediate 10-fold dilution using Buffer A (50 mM HEPES, pH 7.5, 50 mM NaCl, 10 mM MgCl2, 1 mM DTT, and 0.1% Pluronic F-68). Two microliters of serially diluted compound or PROTAC were then transferred to black 384-well Proxiplates (PerkinElmer, #6008260) using an Integra Viaflo96. Next, 10 uL of protein kinase in Buffer A was added to each well of the assay plate and pre-incubated with compound for 10 minutes. Kinase reactions were then initiated by addition of 5 uL substrate mix containing 3 mM ATP and 30 uM fluorescein-labeled Poly-GluTyr (Thermo Fisher, #PV3610) in Buffer A and allowed to proceed for 10 minutes at room temperature. Reactions were quenched by addition of a 5 uL mixture containing 5 nM LanthaScreen® Tb-pY20 Antibody (Thermo Fisher, #PV3552) and 40 mM EDTA in Buffer A. Assay plates were then read using a Synergy2 (Biotek Instruments, Winooski, Vt.) via excitation thru a 340/20 nm bandpass filter and emission collected thru 490/10 nm (donor) and 520/25 nm (acceptor) bandpass filters.

[2] = target: EGFR L858R/T790M double mutant (H1975) (Homo sapiens (Human), UniProt P00533, L858R/T790M); assay: EGFR protein degradation assay (Western blot); format: cell-based; details: 72 hours, 300 nM to 10 nM
Procedure: as §1
Cells expressing the appropriate form of EGFR were seeded in 6-well plates (300,000 cells per well) and allowed to adhere to the plate overnight. […] To harvest cells, media was removed and cells were washed once with ice-cold phosphate-buffered saline (PBS) prior to the addition of 400 μl lysis buffer (Cell Signaling Technology) supplemented with a protease inhibitor cocktail (Thermo Scientific). Cells were scraped from the plate and the cell lysate transferred to an Eppendorf tube and then clarified by a single spin at 10 000 rpm for 10 minutes. The protein concentration of each lysate was determined (BCA kit, Thermo Scientific) prior to the addition of loading buffer (Invitrogen) and reducing agent (Invitrogen). 10 μg protein of each lysate was loaded on an SDS/PAGE gel and run at 165V for 2 hours. Following transfer to a PVDF membrane (iBlot2, Thermo Fisher Scientific), the membrane was blocked in Tris-buffered saline containing 0.1% Tween-20 (TBS-T) and supplemented with 5% powdered milk for 1 hour. Membranes were then probed with EGFR and tubulin (loaded control) primary antibodies in TBS-T containing 3% bovine serum albumin (BSA) overnight at 4° C. Membranes were washed thrice with TBS-T before incubation with secondary antibody in TBS-T containing 3% bovine serum albumin (BSA) and incubated for 1 hour at room temperature. Following 3 further washes with TBS, membrane proteins of interest were detected by enzyme-linked chemiluminescence (ECL) using a Chemidoc (Bio-Rad).

Sequence of EGFR L858R/T790M/C797S triple mutant (H520*) (P00533 25-1210 T790M/C797S/L858R): as the sequence (P00533 25-1210 T790M/C797S/L858R) above

SMILES | EGFR protein remaining, EGFR L858R/T790M/C797S triple mutant [1] | IC50 (EGFR WT) [nM] | IC50 (EGFR L858R/T790M/C797S) [nM] | IC50 (EGFR L858R/T790M) [nM] | IC50 (EGFR Exon20NPG) [nM] | EGFR protein remaining, EGFR L858R/T790M double mutant [2]
O=C1CCC(N2C(=O)c3cccc(NCCOCCOCCOCCOCCOCCOCC#Cc4cccc5c4C(=O)N(C(C(=O)Nc4nccs4)c4cc(F)ccc4O)C5)c3C2=O)C(=O)N1 (centres unmarked) [compound 295] | C (>80% EGFR protein remaining after 72 hours of incubation with the test compound at a concentration of 300 nM) | 34000 | 710 | 3100 | – | –
O=C1CCC(N2C(=O)c3ccc(N4CCC(CN5CCC(OC/C=C/c6cccc7c6C(=O)N(C(C(=O)Nc6nccs6)c6cc(F)ccc6O)C7)CC5)CC4)cc3C2=O)C(=O)N1 (centres unmarked) [compound 298] | C (>80% EGFR protein remaining after 72 hours of incubation with the test compound at a concentration of 300 nM) | 1600 | 540 | 1400 | – | –
O=C1CCC(N2C(=O)c3ccc(N4CCN(CCCOCCCCNc5cccc6c5C(=O)N(C(C(=O)Nc5nccs5)c5cc(F)ccc5O)C6)CC4)cc3C2=O)C(=O)N1 (centres unmarked) [compound 289] | C (>80% EGFR protein remaining after 72 hours of incubation with the test compound at a concentration of 300 nM) | 1200 | 190 | 1700 | – | –
O=C1CCC(N2C(=O)c3cccc(NCCOCCOCCOCCOCCOCCOCCCc4cccc5c4C(=O)N(C(C(=O)Nc4nccs4)c4cc(F)ccc4O)C5)c3C2=O)C(=O)N1 (centres unmarked) [compound 300] | C (>80% EGFR protein remaining after 72 hours of incubation with the test compound at a concentration of 300 nM) | 2700 | 3100 | 20000 | – | –
O=C1CCC(N2C(=O)c3ccc(N4CCC(CN5CCC(OCCCc6cccc7c6C(=O)N(C(C(=O)Nc6nccs6)c6cc(F)ccc6O)C7)CC5)CC4)cc3C2=O)C(=O)N1 (centres unmarked) [compound 297] | B (≤80% and >50% EGFR protein remaining after 72 hours of incubation with the test compound at a concentration between 300 nM and 10 nM) | 1800 | 310 | 1800 | – | –
Cc1ncsc1-c1ccc([C@H](C)NC(=O)[C@@H]2C[C@@H](O)CN2C(=O)[C@@H](NC(=O)COCCOCCOCCOCCOCCOCCOCC#Cc2cccc3c2C(=O)N(C(C(=O)Nc2nccs2)c2cc(F)ccc2O)C3)C(C)(C)C)cc1 (some centres unmarked) [compound 299] | C (>80% EGFR protein remaining after 72 hours of incubation with the test compound at a concentration of 300 nM) | 240 | 200 | 4600 | – | –
Cc1ncsc1-c1ccc([C@H](C)NC(=O)[C@@H]2C[C@@H](O)CN2C(=O)[C@@H](NC(=O)COCCOCCOCCc2ccc(OC3CCN(c4nccc(Nc5cc6c(cn5)nc(C)n6C(C)C)n4)CC3)cc2)C(C)(C)C)cc1 [Example 291, (2S,4R)-1-((S)-2-(Tert-butyl)-14-(4-((1-(4-((1-isopropyl-2-methyl-1H-imidazo[4,5-c]pyridin-6-yl)amino)pyrimidin-2-yl)piperidin-4-yl)oxy)phenyl)-4-oxo-6,9,12-trioxa-3-azatetradecanoyl)-4-hydroxy-N—((S)-1-(4-(4-methylthiazol-5-yl)phenyl)ethyl)pyrrolidine-2-carboxamide] | C (>80% EGFR protein remaining after 72 hours of incubation with the test compound at a concentration of 300 nM) | 14000 | > 60000 | > 60000 | – | –
COC1CCN(c2nccc(Nc3cc4c(cn3)nc(COCCOCCN3CCN(CCOc5ccc6c(c5)C(=O)N(C5CCC(=O)NC5=O)C6=O)CC3)n4C(C)C)n2)CC1 (centres unmarked) [compound 88] | – | > 30000 | 9400 | 11000 | 3100 | C (>80% EGFR protein remaining after 72 hours of incubation with the test compound at a concentration of 300 nM)
O=C1CCC(N2C(=O)c3ccc(OCCN4CCN(CCCC#Cc5cccc6c5C(=O)N(C(C(=O)Nc5nccs5)c5cc(F)ccc5O)C6)CC4)cc3C2=O)C(=O)N1 (centres unmarked) [compound 94] | – | 2100 | 1800 | 6000 | 1500 | C (>80% EGFR protein remaining after 72 hours of incubation with the test compound at a concentration of 300 nM)
Cc1ncsc1-c1ccc(CNC(=O)[C@@H]2C[C@@H](O)CN2C(=O)C(C(C)C)N2Cc3ccccc3C2=O)c(OCCCCOc2ccc(-c3nccc(Nc4cc5c(cn4)nc(C)n5C(C)C)n3)cc2)c1 (some centres unmarked) [compound 277] | – | > 30000 | > 30000 | > 30000 | > 30000 | C (>80% EGFR protein remaining after 72 hours of incubation with the test compound at a concentration of 300 nM)
O=C1CCC(N2C(=O)c3ccc(N4CCN(CCCC#Cc5cccc6c5C(=O)N(C(C(=O)Nc5nccs5)c5cc(F)ccc5O)C6)CC4)cc3C2=O)C(=O)N1 (centres unmarked) [compound 96] | – | 1900 | 4600 | 10000 | 2500 | C (>80% EGFR protein remaining after 72 hours of incubation with the test compound at a concentration of 300 nM)
O=C1CCC(N2C(=O)c3ccc(OCCOCCOCCOCCOCCOCC#Cc4cccc5c4C(=O)N([C@@H](C(=O)Nc4nccs4)c4cc(F)ccc4O)C5)cc3C2=O)C(=O)N1 (some centres unmarked) [compound 263] | – | 8600 | 790 | 11000 | 12000 | C (>80% EGFR protein remaining after 72 hours of incubation with the test compound at a concentration of 300 nM)
